The record followed here is patent US20230220331A1, “TEMPORARY TREATMENT MEDIUM, TREATMENT KIT, EMBRYOGENESIS ARREST INHIBITOR, EMBRYOGENESIS ARREST INHIBITORY METHOD, DEVELOPMENTAL ENGINEERING PRODUCT PREPARATION METHOD, TRANSPLANTATION METHOD, THERAPEUTIC METHOD, AND DEVELOPMENTAL ENGINEERING PRODUCT” (priority 2020, published 2023).

In this test the test system is frozen embryos of C57BL/6J. The test can be described thus: Recovery of re-frozen and re-thawed blastocysts, cytochalasin B vs Y-27632 (Treatment Example 10). In kind it is cell-based, mouse. The conditions noted are these: for RECOVERY RATE about 3 hours later / RECOVERY RATE about 24 hours later / RECOVERY RATE immediately after thawing / number of embryos ABOUT 3 HOURS LATER / number of embryos ABOUT 24 HOURS LATER / number of embryos IMMEDIATELY AFTER THAWING: 19 embryos. As for the experimental part:
In this treatment example, as in the above-mentioned treatment example 9, the normal medium (hereinafter, referred to as “Y− medium” as in the treatment example 9), the temporary treatment medium to which Y-27632 is added (hereinafter, referred to as “Y+ medium” as in the treatment example 9), and a CB-added medium (hereinafter, referred to as “CB+ medium”) were used. The concentrations of CB in the CB+ medium were 5 μM and 10 μM are prepared. As the manipulation, the recovery rates when frozen embryos were thawed and developed, then re-frozen in blastocysts and re-thawed were compared.
For the treatment, 107 frozen embryos of C57BL/6J (provided from CLEA Japan, Inc.) at the 2-cell stage were used. Firstly, the frozen embryos at the 2-cell stage were thawed and blastocysts were developed as they were in a normal medium.
Then, the blastocysts were then transferred to each of the above media and placed for 30 minutes. Then, the embryos were transferred to Y− medium again and placed for 30 minutes.
Then, each embryo was frozen.
Then, the embryos were then thawed and placed in M2 medium for 10 minutes.
Then, each embryo was evenly divided and placed on the medium for 1 hour.
The embryos were observed by returning to the Y− medium again. This observation was performed immediately after thawing, 3 hours later, and 24 hours later.

In the case of `C=C1[C@@H](C)[C@H]2[C@H](Cc3ccccc3)NC(=O)[C@]23OC(=O)/C=C/[C@H](O)CCC[C@@H](C)C/C=C/[C@H]3[C@@H]1O` [CB+ mWM, 2H-Oxacyclotetradecino[2,3-d]isoindole-2,18(5H)-dione, 6,7,8,9,10,12a,13,14,15,15a,16,17-dodecahydro-5,13-dihydroxy-9,15-dimethyl-14-methyl ene-16-(phenylmethyl)-, (3E,5R,9R,11E,12aS,13S,15S,15aS,16S,18aS)-], for the setting “5 μM in mWM”, the “RECOVERY RATE about 3 hours later” value came out at 94%, the “RECOVERY RATE about 24 hours later” value worked out at 78%, the “RECOVERY RATE immediately after thawing” value is listed as 26% and the “number of embryos ABOUT 3 HOURS LATER” value is 18. Moreover, for the setting “5 μM in mWM”, the “number of embryos ABOUT 24 HOURS LATER” value is given as 15 and the “number of embryos IMMEDIATELY AFTER THAWING” value turned out to be 5. For the same compound, where the note is “10 μM in mWM”, the “RECOVERY RATE about 3 hours later” value was 52%, the “RECOVERY RATE about 24 hours later” value is on record as 63%, the “RECOVERY RATE immediately after thawing” value worked out at 10% and the “number of embryos ABOUT 3 HOURS LATER” value is recorded as 10. Moreover, where the note is “10 μM in mWM”, the “number of embryos ABOUT 24 HOURS LATER” value stood at 12 and the “number of embryos IMMEDIATELY AFTER THAWING” value is reported as 2. Further, the “recovery rate of 5 μM higher than that of 10 μM” value (after 24 hours) came out at 15%.
